ChEMBL document CHEMBL5131510, “Proteostasis Regulators in Cystic Fibrosis: Current Development and Future Perspectives” (J Med Chem, 2022)
Blank lines part the entries; values can stand above or below the compound they belong to. Where a SMILES comes first, the peptide text is derived from it. Bridges are numbered along the chain shown (N, C = ends).

Columns and labels:
[1] = molecular target: T1, Protein mono-ADP-ribosyltransferase PARP16 (Homo sapiens, UniProt Q8N5Y8); experiment: Inhibition of PARP16 (unknown origin) using 6xHis-tagged IRE-1 as substrate incubated for 1 hr by chemiluminescence assay
T1 sequence (Q8N5Y8 whole entry): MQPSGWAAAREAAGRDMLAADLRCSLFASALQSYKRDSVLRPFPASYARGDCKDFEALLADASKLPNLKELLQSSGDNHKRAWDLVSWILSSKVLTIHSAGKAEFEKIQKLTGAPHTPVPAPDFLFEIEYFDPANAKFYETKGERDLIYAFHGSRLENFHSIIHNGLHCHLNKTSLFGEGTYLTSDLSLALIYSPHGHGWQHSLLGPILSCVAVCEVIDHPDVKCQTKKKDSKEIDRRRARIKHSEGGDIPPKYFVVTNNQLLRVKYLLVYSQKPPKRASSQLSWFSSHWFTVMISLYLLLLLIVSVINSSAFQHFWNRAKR

[2] = molecular target: T2, Protein mono-ADP-ribosyltransferase PARP3 (Homo sapiens, UniProt Q9Y6F1); experiment: Inhibition of recombinant human PARP3 expressed in baculovirus expression system using anchored-histone proteins as substrate incubated for 1 hr by chemiluminescence assay
T2 sequence (Q9Y6F1 whole entry): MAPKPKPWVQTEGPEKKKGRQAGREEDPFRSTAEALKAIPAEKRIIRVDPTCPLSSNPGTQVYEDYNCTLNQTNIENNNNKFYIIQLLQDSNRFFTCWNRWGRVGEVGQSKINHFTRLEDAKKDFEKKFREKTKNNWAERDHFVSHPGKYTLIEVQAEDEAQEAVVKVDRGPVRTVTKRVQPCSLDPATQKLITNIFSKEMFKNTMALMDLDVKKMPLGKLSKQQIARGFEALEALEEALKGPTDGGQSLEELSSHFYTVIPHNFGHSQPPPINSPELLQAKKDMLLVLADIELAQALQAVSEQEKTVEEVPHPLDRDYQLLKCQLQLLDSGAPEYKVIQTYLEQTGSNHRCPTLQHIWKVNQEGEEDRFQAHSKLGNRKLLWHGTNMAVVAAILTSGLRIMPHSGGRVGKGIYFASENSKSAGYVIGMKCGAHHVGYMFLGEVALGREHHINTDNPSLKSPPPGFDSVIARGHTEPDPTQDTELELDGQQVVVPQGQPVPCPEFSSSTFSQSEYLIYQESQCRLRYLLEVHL

[3] = system: Cystic fibrosis transmembrane conductance regulator (Homo sapiens), P13569 [F508del]; experiment: Stabilization of F508del-CFTR in human CFBE41o- cells assessed as OUTB1 occupancy by Proteomic analysis relative to control; assay type: cell-based
Chain of Cystic fibrosis transmembrane conductance regulator (Homo sapiens), P13569 [F508del] (P13569 as listed by the source): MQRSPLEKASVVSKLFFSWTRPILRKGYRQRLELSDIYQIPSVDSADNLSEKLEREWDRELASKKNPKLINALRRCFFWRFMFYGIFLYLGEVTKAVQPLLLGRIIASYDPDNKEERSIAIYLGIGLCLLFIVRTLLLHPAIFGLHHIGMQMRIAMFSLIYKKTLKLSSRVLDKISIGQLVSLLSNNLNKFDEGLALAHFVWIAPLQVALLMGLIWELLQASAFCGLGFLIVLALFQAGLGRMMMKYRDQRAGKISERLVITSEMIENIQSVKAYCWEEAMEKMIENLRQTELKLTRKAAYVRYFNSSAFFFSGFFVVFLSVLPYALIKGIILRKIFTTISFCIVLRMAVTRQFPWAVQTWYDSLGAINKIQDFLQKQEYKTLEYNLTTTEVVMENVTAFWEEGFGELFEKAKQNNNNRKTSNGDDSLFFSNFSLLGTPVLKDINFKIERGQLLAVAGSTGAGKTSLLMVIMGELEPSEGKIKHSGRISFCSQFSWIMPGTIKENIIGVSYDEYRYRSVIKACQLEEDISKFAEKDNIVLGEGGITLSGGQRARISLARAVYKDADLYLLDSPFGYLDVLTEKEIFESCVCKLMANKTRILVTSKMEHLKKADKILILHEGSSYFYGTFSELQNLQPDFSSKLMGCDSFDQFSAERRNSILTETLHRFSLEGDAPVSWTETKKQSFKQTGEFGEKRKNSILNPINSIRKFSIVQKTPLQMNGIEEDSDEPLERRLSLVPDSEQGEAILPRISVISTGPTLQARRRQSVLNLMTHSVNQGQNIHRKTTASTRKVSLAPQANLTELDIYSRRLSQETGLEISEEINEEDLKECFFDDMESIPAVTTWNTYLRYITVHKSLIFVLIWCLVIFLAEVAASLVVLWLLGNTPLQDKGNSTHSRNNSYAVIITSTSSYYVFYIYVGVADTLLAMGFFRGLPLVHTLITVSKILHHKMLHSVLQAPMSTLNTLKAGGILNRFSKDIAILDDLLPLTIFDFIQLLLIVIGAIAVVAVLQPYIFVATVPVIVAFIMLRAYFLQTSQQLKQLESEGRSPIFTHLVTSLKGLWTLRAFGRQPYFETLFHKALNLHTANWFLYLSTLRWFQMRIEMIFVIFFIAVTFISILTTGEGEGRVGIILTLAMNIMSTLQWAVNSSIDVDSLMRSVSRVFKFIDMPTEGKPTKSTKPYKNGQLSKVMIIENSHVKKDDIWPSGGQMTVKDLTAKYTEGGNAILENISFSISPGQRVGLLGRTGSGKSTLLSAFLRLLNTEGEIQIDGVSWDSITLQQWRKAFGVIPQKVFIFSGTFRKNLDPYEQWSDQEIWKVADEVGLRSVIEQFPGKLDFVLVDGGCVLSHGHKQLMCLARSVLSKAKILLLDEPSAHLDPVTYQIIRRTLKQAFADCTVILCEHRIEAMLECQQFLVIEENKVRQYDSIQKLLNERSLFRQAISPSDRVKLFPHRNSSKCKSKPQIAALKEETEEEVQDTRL

[4] = Rescue of F508del-CFTR residual channel activity in hamster BHK cells assessed as fold increase in forskolin/genistein-induced iodide efflux measured every minute for 10 mins
[5] = molecular target: T3, Golgi-associated PDZ and coiled-coil motif-containing protein (Homo sapiens, UniProt Q9HD26); experiment: Binding affinity to CAL PDZ domain (unknown origin) assessed as dissociation constant in presence of tris(carboxylethyl)phosphine by fluorescence anisotropy analysis
[6] = system: Cystic fibrosis transmembrane conductance regulator (Homo sapiens), P13569 [F508del]; experiment: Modulation of F508del-CFTR mutant in HBE cells assessed as fold increase in CFTR mRNA levels by […]; assay type: cell-based; conditions: filed as modulator
Homo sapiens = species on record: Homo sapiens; experiment: Inhibition of Hsp70 ATPase activity (unknown origin) at 200 uM incubated for 3 hrs in presence of ATP by malachite green assay relative to control
[7] = Inhibition of Hsp40-stimulated yeast Hsp70 ATPase activity assessed as inhibition constant by single-turnover assay; parameters: species or system Saccharomyces cerevisiae
Mus musculus = experiment: In vivo rescue of F508del-CFTR activity in cystic fibrosis mouse model assessed as measuring salivary secretion at 5 mg/kg/day, ip qd for 2 days relative to control; assay type: functional; conditions: time 2 day
[8] = Ex vivo inhibition of PARP-1 in ileum of cystic fibrosis mouse model assessed as rescue of F508del-CFTR activity at 1 nM treated for 4 hrs in presence of forskolin/genistein relative to control; assay type: functional; parameters: scale not given: the % may be the effect or the level left
[9] = system: Cystic fibrosis transmembrane conductance regulator (Homo sapiens), P13569 [F508del]; experiment: Modulation of F508del-CFTR mutant transfected in human HEK293 cells assessed as fold increase in level of ER glycosylated form of F508del-CFTR at 30 uM treated for 24 hrs by immunoblot assay; assay type: cell-based; conditions: filed as modulator
[10] = molecular target: T3, Golgi-associated PDZ and coiled-coil motif-containing protein; experiment: Inhibition of CAL PDZ domain (unknown origin) assessed as inhibition constant by fluorescence polarization competition assay

SMILES: CCN(CC)c1ccc(N/N=C2\C(=O)C=Cc3ccccc32)cc1
fold change (FC) [4]: 2.5

SMILES: N#CCc1nnc(-c2ccccn2)[nH]1
fold change (FC) [4]: 2.5

SMILES: O=C(NCCCn1nncc1CO)c1cc(-c2ccccc2)on1
fold change (FC) [6]: 1.5

SMILES: C[C@]1(c2nc3c(C(N)=O)cccc3[nH]2)CCCN1 [VELIPARIB]
Activity (Mus musculus): 7.8%
Activity [8]: 7%

SMILES: CC1=C(C(=O)OCc2ccccc2)C(c2ccc(Cl)cc2Cl)NC(=O)N1CCCC(=O)O (stereo not given)
fold change (FC) [9]: 2.1

SMILES: O=C1NC[C@@H](c2ccccc2)[C@@H](O)c2ccccc21
IC50 [1]: 296 µM
IC50 [2]: 3.1 µM

Continued, values first:

IC50 [1]: 0.362 µM
IC50 [2]: 74.1 µM
SMILES: O=C1NC[C@@H](c2ccccn2)[C@@H](O)c2cc(Cl)c(Cl)cc21

Activity [3]: 60%
SMILES: C=CC(=O)N1CCN(c2ccc(CCC(=O)NCCCCCNC(=O)c3cccc(-c4nc(NC(=O)C5(c6ccc7c(c6)OC(F)(F)O7)CC5)ccc4C)c3)o2)C(=O)C1

Kd [5]: 0.49 µM
SMILES: CC(=O)N[C@H]1CSSC[C@@H](C(=O)N[C@H](C(=O)N[C@@H](CCCNC(=N)N)C(=O)N[C@H](C(=O)O)C(C)C)[C@@H](C)O)NC(=O)[C@H](CCC(N)=O)NC(=O)[C@H](Cc2c[nH]c3ccccc23)NC(=O)[C@H](Cc2ccccc2)NC(=O)[C@H](CCCNC(=N)N)NC(=O)[C@H](CCCNC(=N)N)NC(=O)[C@H](CCCNC(=N)N)NC(=O)[C@H](CCCNC(=N)N)NC1=O (Ac-CRRRRFWQCTRV-OH; disulfide 1-9)

inhibition (Homo sapiens): 55%
SMILES: COc1ccc(-c2nc(-c3cc(C(F)(F)F)cc(C(F)(F)F)c3)n(Cc3ccc(C(N)=O)cc3)c2-c2ccc(OC)cc2)cc1

Ki [7]: 10 µM
SMILES: CCCCCCCCCCCCC/C=C/[C@@H](O)[C@H](COC1O[C@H](CO)[C@H](O)[C@H](OS(=O)(=O)O)[C@H]1O)NC(=O)CC12CC3CC(CC(C3)C1)C2 (stereo not given in full)

Ki [10]: 2.3 µM
SMILES: CC(=O)N[C@@H](Cc1c[nH]c2ccccc12)C(=O)N[C@@H](CCC(N)=O)C(=O)N[C@H](C(=O)N[C@H](C(=O)N[C@@H](CCCNC(=N)N)C(=O)N[C@H](C(=O)O)C(C)C)[C@@H](C)O)C(C)C (Ac-WQVTRV-OH)
